# Where a name gives a salt, the structure may show the parent alone.
# What was measured:
# [1] = Uptake (injection time) of OTC solutions injected into rootstock of Valencia citrus trees; format: in vivo; conditions: for Absorption of solution by trees: overall conclusions from functional testing, nS-nPG-OTC: after the first 50 mL
# Description: The test article solutions (11,000 ppm) were prepared as above and were fluidly pressurized into latex injection devices (FLexInect™, TJ Biotech LLC, Buffalo, SD) and then were injected into rootstock of uniform, commercially grown, Valencia citrus trees. The injection devices were monitored to measure uptake rates of the solutions.
# Table 2 presents the results of Trial 1, which used trees (n=10) having trunk diameters between 2.125″ and 3.00″.
# Table 3 presents the results of Trial 2, which used trees (n=10) having trunk diameters between 3.00″ and 4.25″. 100 mL of the test solutions were injected with the ambient temperature between 80° F. and 90° F.
# Table 4 presents the results of Trial 3, which used trees (n=30) having trunk diameters between 3.00″ and 4.25″. Up to 100 mL of the test solutions were injected with the ambient temperature <70° F., at which temperatures transpiration in the vascular system is reduced. In this trial, the injections were stopped at 120 minutes regardless of if injections were complete.
# [2] = OTC residues in fruit after injection; format: in vivo; conditions: when using PG-OTC solutions
# [3] = Visual monitoring of homogeneity of 11,000 ppm OTC test solutions in pH 2 water; format: physicochemical; conditions: 11,000 ppm in pH 2 water, 10× magnification, immediately upon preparation at 75° F.; HCl
# Description: Next, OTC solutions were prepared by first reducing the pH of water to pH 2 using hydrochloric acid. 11.0 g of PG-OTC (>95%) and non-sterile, nS-nPG-OTC (putatively 95%) each were dissolved into 1.0 L of the pH 2 water to generate 11,000 ppm test solutions, which then were monitored visually at 10× magnification. […] To elucidate the nonhomogeneous nature of the nS-nPG-OTC solutions, visualization was performed at 60× magnification, as is shown in FIG. 8 and wherein an abundance of actively growing needle-like crystals having lengths of approximately 10-250 μm are visible. These needle-like crystals likely comprise OTC and/or OTC and one or more impurities.
# Valencia orange tree = experiment: Study 1: comparison of injection and spray applications, tree vigor rating; format: in vivo; conditions: Study 1 conclusion
# Description: Tree Vigor Ratings: 1=Lowest Vigor; 5=Highest Vigor. LSD stands for least significant difference and C.V. stands for Coefficient of Variance.
# For Treatment 1, a 5,500 ppm solution of PG-OTC was prepared using distilled water. This solution then was acidified to pH 2 using hydrochloric acid. […] For Treatment 2, 2.5 g of PG-OTC was dissolved in 2 gallons of water. The resultant solution was sprayed onto the foliage of the trees at a rate of 1 quart (0.3125 g OTC·HCl) per tree (n=9). Vigor ratings were performed 60 days after application of treatments.
SMILES,"Time (Minutes) of injection/uptake ([1]; Trial 1: 50 mL of 11,000 ppm solution, trunk diameter 2.125-3.00 in, 80-90° F., n=10, HCl)","Time (Minutes) of injection/uptake ([1]; Trial 2: 100 mL of 11,000 ppm solution, trunk diameter 3.00-4.25 in, 80-90° F., n=10, HCl)","Time (Minutes) of injection/uptake ([1]; Trial 3: up to 100 mL of 11,000 ppm solution, trunk diameter 3.00-4.25 in, <70° F., stopped at 120 minutes, n=30, HCl)",Absorption of solution by trees ([1]; HCl),Residues in the fruit (within tolerance) [2],Homogeneity of solution [3],Effectiveness of trunk injection versus application of unacidified solution to foliage by spraying (Valencia orange tree),"Time (Minutes) of injection/uptake ([1]; Trial 1: 50 mL of 11,000 ppm solution, trunk diameter 2.125-3.00 in, 80-90° F., n=10)","Time (Minutes) of injection/uptake ([1]; Trial 2: 100 mL of 11,000 ppm solution, trunk diameter 3.00-4.25 in, 80-90° F., n=10)","Time (Minutes) of injection/uptake ([1]; Trial 3: up to 100 mL of 11,000 ppm solution, trunk diameter 3.00-4.25 in, <70° F., stopped at 120 minutes, n=30)",Absorption of solution by trees [1]
"CN(C)[C@@H]1C(O)=C(C(N)=O)C(=O)[C@@]2(O)C(O)=C3C(=O)c4c(O)cccc4[C@@](C)(O)[C@H]3[C@H](O)[C@@H]12 [PG-OTC, Oxytetracycline HCl]",8.4 b Minutes,18.2 b Minutes,81.1 b Minutes,readily absorbed,≤ 10 PPB,essentially homogeneous,more effective,,,,
"CN(C)[C@@H]1C(O)=C(C(N)=O)C(=O)[C@@]2(O)C(O)=C3C(=O)c4c(O)cccc4[C@@](C)(O)[C@H]3[C@H](O)[C@@H]12 [nS-nPG-OTC, Oxytetracycline]",,,,,,,,15.3 a Minutes,134.7 a Minutes,117.33 a Minutes,marked decrease in absorption rate
